SMILES strings stand for the structures.

A short description of one series: log Pow: distribution coefficient between 1-octanol and water. To be noted: 1-octanol/water.
From the text: Log Pow*=log Pow*−x*P′(x)/log Pow Formula 2: • where log Pow is the decimal logarithm of the distribution coefficient of a substance between 1-octanol and water, • x is the resulting solvent proportion based on the total volume proportion, normalized as 1.0, and • P′(x) is the polarity parameter for the corresponding solvent for the solvent proportion x.
Take `C=CC(C)(O)CCC=C(C)C` (centres unmarked) [Linalool]: the “log Pow” value is recorded as 3.28.

Regarding `CC/C=C\CC1C(=O)CCC1CC(=O)OC` (centres unmarked) [Methyl jasmonate], the “log Pow” value stood at 2.12.

Turning to `CCCCCC(=O)OC` [Methylcapronate], the “log Pow” value came to 2.30.

Turning to `CS` [Methylmercaptan], the “log Pow” value is reported as 0.65.

With `CCCSSC` [Methylpropyldisulfide], the “log Pow” value worked out at 2.83.

Regarding `C=C(C)[C@@H]1CCC2=CC(=O)C[C@@H](C)[C@]2(C)C1` [Nootkatone], the “log Pow” value is 4.10.

Regarding `CCCCCCCC=O` [Octanal], the “log Pow” value is recorded as 3.03.

A short description of the next series: log Pow* calculated by Formula 2 from log Pow and the polarity parameter P′(x) of the ethanol/water mixture.
Conditions: not given
On to `C=CC(C)(O)CCC=C(C)C` (centres unmarked) [Linalool], for which the “log Pow* (P′ 2%)” value is listed as 3.22, the “log Pow* (P′ 4%)” value was 3.16, the “log Pow* (P′ 6%)” value was 3.11 and the “log Pow* (P′ 8%)” value is on record as 3.06. The “log Pow* (P′ 10%)” value is reported as 3.01, the “log Pow* (P′ 30%)” value is 2.62, the “log Pow* (P′ 40%)” value is 2.48 and the “log Pow* (P′ 50%)” value is on record as 2.36. Moreover, the “log Pow* (P′ 60%)” value is 2.26, the “log Pow* (P′ 70%)” value is 2.17, the “log Pow* (P′ 80%)” value is reported as 2.09 and the “log Pow* (P′ 90%)” value is reported as 2.03. Moreover, the “log Pow* (P′ 100%)” value is reported as 1.97.

In the case of `CC/C=C\CC1C(=O)CCC1CC(=O)OC` (centres unmarked) [Methyl jasmonate], the “log Pow* (P′ 2%)” value is 2.03, the “log Pow* (P′ 4%)” value is 1.94, the “log Pow* (P′ 6%)” value is given as 1.85 and the “log Pow* (P′ 8%)” value is listed as 1.77. Also, the “log Pow* (P′ 10%)” value is listed as 1.70, the “log Pow* (P′ 30%)” value is listed as 1.10, the “log Pow* (P′ 40%)” value is recorded as 0.88 and the “log Pow* (P′ 50%)” value is 0.69. The “log Pow* (P′ 60%)” value is 0.54, the “log Pow* (P′ 70%)” value was 0.40, the “log Pow* (P′ 80%)” value is given as 0.29 and the “log Pow* (P′ 90%)” value was 0.18. In addition, the “log Pow* (P′ 100%)” value is on record as 0.09.

For the compound `CCCSSC` [Methylpropyldisulfide], the “log Pow* (P′ 2%)” value was 2.76, the “log Pow* (P′ 4%)” value is recorded as 2.69, the “log Pow* (P′ 6%)” value was 2.63 and the “log Pow* (P′ 8%)” value is recorded as 2.57. For the same compound, the “log Pow* (P′ 10%)” value is on record as 2.51, the “log Pow* (P′ 30%)” value is 2.06, the “log Pow* (P′ 40%)” value is given as 1.90 and the “log Pow* (P′ 50%)” value is 1.76. Besides, the “log Pow* (P′ 60%)” value is reported as 1.64, the “log Pow* (P′ 70%)” value is recorded as 1.54, the “log Pow* (P′ 80%)” value was 1.46 and the “log Pow* (P′ 90%)” value is on record as 1.38. In addition, the “log Pow* (P′ 100%)” value is recorded as 1.31.

With `CCCCCCCC=O` [Octanal], the “log Pow* (P′ 2%)” value is recorded as 2.96, the “log Pow* (P′ 4%)” value is on record as 2.90, the “log Pow* (P′ 6%)” value was 2.84 and the “log Pow* (P′ 8%)” value is on record as 2.79. Also, the “log Pow* (P′ 10%)” value is on record as 2.73, the “log Pow* (P′ 30%)” value is 2.31, the “log Pow* (P′ 40%)” value is given as 2.16 and the “log Pow* (P′ 50%)” value is on record as 2.03. Besides, the “log Pow* (P′ 60%)” value is 1.92, the “log Pow* (P′ 70%)” value is 1.83, the “log Pow* (P′ 80%)” value is reported as 1.75 and the “log Pow* (P′ 90%)” value was 1.67. For the same compound, the “log Pow* (P′ 100%)” value is given as 1.61.

Still in this series, the particulars now being: solvent ethanol, proportion 2%.
Regarding `CCCCCC(=O)OC` [Methylcapronate], the “log Pow* (P′ 2%)” value was 2.21.

Consider `CS` [Methylmercaptan], for which the “log Pow* (P′ 2%)” value was 0.34.

As for `C=C(C)[C@@H]1CCC2=CC(=O)C[C@@H](C)[C@]2(C)C1` [Nootkatone], the “log Pow* (P′ 2%)” value was 4.05.

The same series, now with this note: solvent ethanol, proportion 4%.
As to `CCCCCC(=O)OC` [Methylcapronate], the “log Pow* (P′ 4%)” value is given as 2.13.

As to `CS` [Methylmercaptan], the “log Pow* (P′ 4%)” value is given as 0.05.

For `C=C(C)[C@@H]1CCC2=CC(=O)C[C@@H](C)[C@]2(C)C1` [Nootkatone], the “log Pow* (P′ 4%)” value is 4.01.

The same series, now with this note: solvent ethanol, proportion 6%.
For `CCCCCC(=O)OC` [Methylcapronate], the “log Pow* (P′ 6%)” value was 2.05.

As for `CS` [Methylmercaptan], the “log Pow* (P′ 6%)” value was −0.22.

In the case of `C=C(C)[C@@H]1CCC2=CC(=O)C[C@@H](C)[C@]2(C)C1` [Nootkatone], the “log Pow* (P′ 6%)” value is recorded as 3.96.

The series is the same for the next values; noted with them: solvent ethanol, proportion 8%.
As to `CCCCCC(=O)OC` [Methylcapronate], the “log Pow* (P′ 8%)” value is 1.98.

On to `CS` [Methylmercaptan], for which the “log Pow* (P′ 8%)” value is −0.48.

With `C=C(C)[C@@H]1CCC2=CC(=O)C[C@@H](C)[C@]2(C)C1` [Nootkatone], the “log Pow* (P′ 8%)” value is recorded as 3.92.

The series is the same for the next values; noted with them: solvent ethanol, proportion 10%.
`CCCCCC(=O)OC` [Methylcapronate]: the “log Pow* (P′ 10%)” value is given as 1.91.

With `CS` [Methylmercaptan], the “log Pow* (P′ 10%)” value was −0.73.

On to `C=C(C)[C@@H]1CCC2=CC(=O)C[C@@H](C)[C@]2(C)C1` [Nootkatone], for which the “log Pow* (P′ 10%)” value was 3.88.

The series is the same for the next values; noted with them: solvent ethanol, proportion 30%.
For the compound `CCCCCC(=O)OC` [Methylcapronate], the “log Pow* (P′ 30%)” value was 1.36.

As to `CS` [Methylmercaptan], the “log Pow* (P′ 30%)” value is given as −2.68.

For `C=C(C)[C@@H]1CCC2=CC(=O)C[C@@H](C)[C@]2(C)C1` [Nootkatone], the “log Pow* (P′ 30%)” value is reported as 3.57.

The same series, now with this note: solvent ethanol, proportion 40%.
Consider `CCCCCC(=O)OC` [Methylcapronate], for which the “log Pow* (P′ 40%)” value is 1.15.

Take `CS` [Methylmercaptan]: the “log Pow* (P′ 40%)” value is recorded as −3.40.

Regarding `C=C(C)[C@@H]1CCC2=CC(=O)C[C@@H](C)[C@]2(C)C1` [Nootkatone], the “log Pow* (P′ 40%)” value was 3.46.

The same series, now with this note: solvent ethanol, proportion 50%.
`CCCCCC(=O)OC` [Methylcapronate]: the “log Pow* (P′ 50%)” value was 0.98.

For the compound `CS` [Methylmercaptan], the “log Pow* (P′ 50%)” value is on record as −4.00.

Take `C=C(C)[C@@H]1CCC2=CC(=O)C[C@@H](C)[C@]2(C)C1` [Nootkatone]: the “log Pow* (P′ 50%)” value is 3.36.

Still in this series, the particulars now being: solvent ethanol, proportion 60%.
`CCCCCC(=O)OC` [Methylcapronate]: the “log Pow* (P′ 60%)” value was 0.84.

As to `CS` [Methylmercaptan], the “log Pow* (P′ 60%)” value is recorded as −4.51.

As to `C=C(C)[C@@H]1CCC2=CC(=O)C[C@@H](C)[C@]2(C)C1` [Nootkatone], the “log Pow* (P′ 60%)” value was 3.28.

The series is the same for the next values; noted with them: solvent ethanol, proportion 70%.
For the compound `CCCCCC(=O)OC` [Methylcapronate], the “log Pow* (P′ 70%)” value was 0.72.

With `CS` [Methylmercaptan], the “log Pow* (P′ 70%)” value was −4.95.

`C=C(C)[C@@H]1CCC2=CC(=O)C[C@@H](C)[C@]2(C)C1` [Nootkatone]: the “log Pow* (P′ 70%)” value is recorded as 3.21.

The series is the same for the next values; noted with them: solvent ethanol, proportion 80%.
Turning to `CCCCCC(=O)OC` [Methylcapronate], the “log Pow* (P′ 80%)” value is reported as 0.61.

`CS` [Methylmercaptan]: the “log Pow* (P′ 80%)” value is −5.33.

Turning to `C=C(C)[C@@H]1CCC2=CC(=O)C[C@@H](C)[C@]2(C)C1` [Nootkatone], the “log Pow* (P′ 80%)” value is listed as 3.15.

Staying with this series, now noted: solvent ethanol, proportion 90%.
As for `CCCCCC(=O)OC` [Methylcapronate], the “log Pow* (P′ 90%)” value was 0.51.

`CS` [Methylmercaptan]: the “log Pow* (P′ 90%)” value is reported as −5.67.

In the case of `C=C(C)[C@@H]1CCC2=CC(=O)C[C@@H](C)[C@]2(C)C1` [Nootkatone], the “log Pow* (P′ 90%)” value is on record as 3.10.

Still in this series, the particulars now being: solvent ethanol, proportion 100%.
In the case of `CCCCCC(=O)OC` [Methylcapronate], the “log Pow* (P′ 100%)” value is recorded as 0.43.

For `CS` [Methylmercaptan], the “log Pow* (P′ 100%)” value is on record as −5.97.

For `C=C(C)[C@@H]1CCC2=CC(=O)C[C@@H](C)[C@]2(C)C1` [Nootkatone], the “log Pow* (P′ 100%)” value is 3.05.

(Values after patent US8394442B2, “Process for the preparation of a flavoring concentrate, and a flavoring concentrate” (SYMRISE AG, priority 2007, dated 2013).)
